Results as given in patent US7033829B2, “Method to inhibit cell growth using oligonucleotides” (Trustees of Boston University, priority 2000, dated 2006).
Oligonucleotides are written 5' to 3', each unit as a sugar letter and its base; * is a phosphorothioate linkage, no mark a phosphodiester; rarer units and linkages stand in square brackets, end groups in braces. Plain capitals give the bases only. d = 2'-deoxy (DNA); {P} = phosphate

Columns and labels:
p53 [1] = biological target: T1, p53 (Homo sapiens, UniProt P04637); experiment: p53 assay using hGH reporter plasmid in keratinocytes; type: cell-based; design: expressed in transfected cells; vector from Dr. Bert Vogelstein; details: 100 μM; 24 hours
Description: Transfection was performed in the presence of 100 μM pTpT (Midland Certified Reagent Company, Midland, Tex.) or an equal volume of diluent. At the same time, the PSV-β-galactosidase control vector (Promega, Madison, Wis.) was co-transfected to determine the transfection efficiency (Norton and Coffin, 1985). Four hours after transfection, the medium was removed and replaced with K-Stim medium with or without 100 μM pTpT. Twenty-four hours after transfection and pTpT treatment, 400 μl of the medium was harvested from each 35 mm culture dish, and 100 μl of ^125I-hGH antibody solution (Nichols Institute Diagnostics, San Juan Capistrano, Calif.) was added to detect secreted hGH as described below. The cells were harvested in a Reporter Lysis Buffer (Promega) using a protocol provided by the manufacturer, and 150 μl of this lysate was used for the β-galactosidase assay using a β-galactosidase assay kit (Promega). Samples from each of triplicate culture dishes were evaluated for hGH and β-galactosidase synthesis.
To confirm the activation of p53 by pTpT in a second assay, a reporter plasmid expressing the human growth hormone (hGH) gene under the influence of a p53 inducible promoter was employed. Activation of p53 increases its binding to the consensus sequence in the plasmid, leading to transcription of the hGH coding sequence and ultimately to secretion of hGH into the medium.

[2] = system: Human melanoma cell lines CRL 1424, Malma, Sk Mel 2, and Sk Mel 28; experiment: Cell yield of human melanoma cell lines; type: cell-based; details: 100 μM; one week; any of four cell lines
Description: Human melanoma cell lines CRL 1424, Malma, Sk Mel 2, and Sk Mel 28 were obtained from the American Type Culture Collection (ATCC). The cell lines were maintained in DME+2% calf serum, and dosed with either water (diluent) with DME, or 100 μM T2 in DME. One week after dosage, cells were collected and counted by Coulter™ counter.

[3] = system: Normal human neonatal keratinocyte cells; experiment: Cell yield of normal keratinocytes; type: cell-based; details: 100 μM
Description: Normal human neonatal keratinocyte cells were cultured as described above in Example 1 for SCC12F cells, and treated with either 100 μM T2 or diluent as a control. Cells were harvested for cell counts. The cell yield in cultures treated with T2 was reduced by 63% compared to that of paired control cultures after three days (FIG. 5).

[4] = system: basal keratinocytes (epidermal cell proliferation); experiment: Epidermal labeling index after topical application; type: in vivo, Guinea pigs; details: 100 μM topical, three days, mean ± SD
Description: Guinea pigs received one or two daily topical applications of 100 μM pTpT, or vehicle alone as control, for three days. On the fourth day, punch biopsies were obtained and maintained for 7 or 8 hours in primary keratinocyte medium supplemented with 10 μCi/ml ^3H-thymidine (specific activity 9.0 Ci/m mole, NEN). Proliferating cells are expected to incorporate the ^3H-thymidine into newly synthesized DNA. Tissues were then rinsed with cold medium and fixed in 10% phosphate buffered formalin. After a series of dehydration steps, tissues were embedded in paraffin. 6 μm sections were cut and mounted onto glass slides, dipped in NTB-2 Nuclear Track emulsion and kept in the dark at 4° C. for 7 days. Sections were developed in Kodak D-19 developer and stained with hematoxylin and eosin. Labeling index, a measure of DNA replication and therefore cell proliferation, was measured by calculating the percentage of labeled nuclei among 100 basal keratinocytes.

contact hypersensitivity = experiment: Contact hypersensitivity to DNFB (ear swelling); type: in vivo, C57B16 mice; details: 30 μl of 100 μM BID×5d topical to abdominal skin before sensitization
Description: C57B16 mice were subjected to the following treatment prior to sensitization with the allergen DNFB, by topical administration to abdominal skin; no pretreatment, UVB irradiation (200 J/m^2/dx4d), pTpT, pApA, or vehicle alone (30 μl of 100 μM BID×5d).

p53 [5] = biological target: T1, p53; experiment: p53 assay using hGH reporter plasmid in p53-transfected H1299 cells; type: cell-based; design: expressed in transfected cells; host or cells: H1299 lung carcinoma cells (p53-null); vector from Dr. Bert Vogelstein; details: 100 μM; 24 hours
Description: H1299 cells were similarly transfected with p53 expression vector or control vector. Two days after the transfection these cells were cotransfected with pPG-GH and PSV-β-galactosidase control vector, and treated with 100 μM pTpT. Twenty-four hours later, 250 μl of the medium and the cell lysate were harvested and processed as described above.

[6] = system: mitochondrial enzymes ATPase, cytochrome c oxidase and NADH dehydrogenase genes; experiment: DNA microarray / RT-PCR / northern of mitochondrial genes in SCC12F; type: cell-based, human
Excerpt: Exposure of keratinocytes to UVB irradiation affects the expression of genes involved in cell cycle arrest, DNA repair and cytokine production. Single-stranded oligonucleotides sharing sequence homology with the telomere 3′ overhang, when introduced into cells, mimic these UV effects. To identify other genes that may be similarly modulated, cells of keratinocyte origin (SCC12F; a human epidermal squamous cell carcinoma line provided by Dr. James Rheinwald of Harvard University) were exposed to solar simulated irradiation (SSR) (20 mJ/cm^2, measured at 285±5 nm), to an 11-base oligonucleotide (pGTTAGGGTTAG; SEQ ID NO:5) homologous to the telomere overhang (T-oligo), or to a complementary sequence as control [pCTAACCCTAAC; (SEQ ID NO:9) control oligonucleotide]. […] These are mitochondrial-transcribed genes whose encoded proteins participate in cellular respiration.

[7] = system: human melanoma line MM-AN; experiment: FACS analysis of MM-AN melanoma cells; type: cell-based; details: 40 μM
Description: Proteins were analyzed by denaturing polyacrylamide gel electrophoresis (SDS-PAGE), using 10% polyacrylamide, and western blot analysis was done with an E2F1-specific monoclonal antibody (KH95 Santa Cruz Biotechnology, Santa Cruz, Calif.), and p73 analyzed using a polyclonal antibody (AB-4 from Oncogene Research Products, San Diego, Calif.). […] In order to determine the contribution of p73 to cell death, MM-AN melanoma cells were stably transfected with a dominant negative p73 (p73DN) (Irwin et al., Nature 402:645–648) construct or empty vector as a control (p73^DN-containing vector a gift from Dr. William Kaelin, Dana Farber Institute, Boston) and paired cultures were supplemented with 40 μM 11mer-1 or diluent alone, then harvested at 72 hours for FACS analysis. […] The above-mentioned differentiation markers are expressed in normal human melanocytes. It appears that the loss of expression of these antigens is a mechanism that a subset of human melanomas uses to escape immunosurveillance defenses. Several peptides from these antigens are targets of tumor infiltrating cytotoxic lymphocytes. Encouraging results have been obtained in vivo with different vaccination strategies using antigenic peptides from the above antigens.

T1 sequence (P04637 whole entry): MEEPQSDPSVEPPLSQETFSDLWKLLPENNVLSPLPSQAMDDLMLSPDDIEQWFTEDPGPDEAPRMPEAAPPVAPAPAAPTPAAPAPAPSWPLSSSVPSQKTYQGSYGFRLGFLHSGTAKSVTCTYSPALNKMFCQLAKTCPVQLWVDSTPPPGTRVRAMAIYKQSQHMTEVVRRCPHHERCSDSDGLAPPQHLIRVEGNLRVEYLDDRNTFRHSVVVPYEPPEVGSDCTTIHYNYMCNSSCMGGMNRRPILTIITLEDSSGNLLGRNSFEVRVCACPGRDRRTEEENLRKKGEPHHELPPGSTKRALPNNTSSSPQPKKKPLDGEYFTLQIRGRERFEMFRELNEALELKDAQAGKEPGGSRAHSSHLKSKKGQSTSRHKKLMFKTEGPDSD

Substance | increase in hGH secretion compared to diluent-treated cells (p53 [1]) | cell yields [2] | cell yield reduced compared to paired control cultures ([3]; after three days) [%] | number of cells ([3]; three days (control: one population doubling)) | Labeling Index (percentage of labeled nuclei among 100 basal keratinocytes) ([4]; 1 daily application) | Labeling Index (percentage of labeled nuclei among 100 basal keratinocytes) ([4]; 2 daily applications) | ear swelling responses to DNFB challenge (contact hypersensitivity) | increase in hGH secretion compared to diluent-treated cells (p53 [5]) [%] | downregulation of 8 genes (microarray) [6] [%] | genes downregulated as early as ([6]; RT-PCR and northern blot) [h] | cell cycle [7] | apoptosis rate of cells expressing p73^DN ([7]; 72 hours) | apoptosis (sub-G0/G1 DNA content) ([7]; by 72 hours)
thymidine dinucleotide [pTpT] | 45%±25% | marked decreases in cell yields | 63 | remained the same | 2 ± 0 | 1.5 ± 0.7 | 0.9±0.3 | 40 |  |  |  |  | 
pGTTAGGGTTAG (DNA {P}-dGdTdTdAdGdGdGdTdTdAdG) [SEQ ID NO: 5] |  |  |  |  |  |  |  |  | > 50 | 48 | first entered an S-phase arrest | at half the rate of control cells | a substantial portion of the cells were undergoing apoptosis
